Like-named read-outs stand apart in the source and are kept apart here.

The values that follow come from article PMC3039689, “Identification of Small Molecule Lead Compounds for Visceral Leishmaniasis Using a Novel Ex Vivo Splenic Explant Model System” (PLoS Neglected Tropical Diseases, 2011).

The subject of series [1] is luciferase-transfected Leishmania donovani. Description: Anti-leishmanial efficacy (EC50) in the ex vivo splenic explant model. It is filed as cell-based. As to the method: To establish the plate assay for drug screening, the spleens from 2 infected hamsters were aseptically removed and placed in a Petri dish containing 5 mL of Collagenase D (Roche) at 2 mg/mL of buffer (10 mM Hepes pH 7.4, 150 mM NaCl, 5 mM KCl, 1 mM MgCl2, 1.8 mM CaCl2). The spleen was infiltrated by injection with approximately 2 mL of Collagenase solution, the tissue was cut into small pieces using sharp scissors, and incubated for 20 minutes at 37°C. The cell suspension and remaining tissue fragments were gently passed through a 100 µm cell strainer (B–D) to obtain a single cell suspension, which was washed twice by centrifugation (500 g for 7 min at 4°C) and re-suspended in culture medium composed of DMEM (Gibco), 5% FBS, 1 mM Sodium pyruvate (Gibco), 1X MEM amino acids solution (Sigma), 0.02% v/v/EDTA, 10 mM HEPES buffer (Cellgro) and 100 IU/mL Penicillin/100 […] Streptomycin solution (Cellgro).
The anti-leishmanial efficacy of the compounds was determined using the splenic explant model in a 96-well plate format. […] Because variation in the parasite burden between different explant cultures was expected, the concentration of cells used in each experiment was adjusted to give approximately 100 counts by luminometry (equivalent to ∼240,000 parasites). The number of surviving parasites was determined by luminometry as described above.

The subject of series [2] is LUC-transfected L. donovani. The experiment in a line: Anti-leishmanial efficacy (EC50) in in vitro infected peritoneal macrophages. In kind it is cell-based, Leishmania donovani. Particulars: 48 h, read-out: Peritoneal Macrophages EC50 (mean±SE). As to the method:
Macrophages from uninfected hamsters were obtained by peritoneal lavage with DMEM (Gibco) and Heparin (2 units/ml; Elkins-Sinn, Cherry Hill NJ). The cells were washed twice by centrifugation and re-suspended in culture medium composed of DMEM, 5% FBS, 1 mM sodium pyruvate (Gibco), 1X MEM amino acids solution (Sigma), 0.02% v/v/EDTA and 10 mM HEPES buffer (Cellgro). The peritoneal macrophages were adjusted to 5×10^5 cells/ml and allowed to adhere overnight at 37°C and 5% CO2 in flat bottom 96-well plates. Adherent macrophages were infected at 1∶5 ratio (cells:parasites) with stationary phase LUC-transfected L. donovani promastigotes and cultured at 37°C, 5% CO2, for 2 h. The extracellular parasites were then removed by washing with warm Dulbeco's PBS (Gibco). Infected macrophages were exposed to 2-fold serial dilutions of test compounds as described above for the ex vivo culture system. The infected macrophages were incubated for 48 hr in 5% CO2 atmosphere at 37°C. The number of surviving parasites was determined by luminometry and the effective concentration (EC50) calculated by linear regression (GraphPad Prism 5.0) as described above for the ex vivo system. The mean and standard error of the EC50 from 3 different experiments were considered as the final EC50. […] Tilorone was obtained from Hangzhou Trylead Chemical Tech (China). All compounds were dissolved in sterile dimethyl sulfoxide (analytical grade, cell culture tested; Sigma) and stored frozen at −20°C until used.

For series [3], the system named is luciferase-transfected Leishmania donovani. Description: Primary screening of compound libraries in the ex vivo splenic explant model (Z score). In kind it is cell-based. Particulars: 10 µM; for Outcome of library screening (significant Z score / hit): compounds as included in the libraries. An excerpt: The following chemical libraries in 96-well plate format were screened: NINDS Custom Collection II (MicroSource Discovery Systems, Inc.), which consists of 1,040 classical therapeutic agents, established experimental inhibitors, receptor agonist drugs and other bioactive compounds [24], [25], [26]; the Pure Natural Products library (MicroSource Discovery Systems, Inc.) a collection of 800 pure natural products and derivatives; and The Diversity Set and Natural Products set (Developmental Therapeutics Program, NCI/NIH) a set of 2,195 compounds selected from the almost 140,000 compounds based on diversity of structure, [28], [29]. Libraries containing the compounds at 10 mM concentration in DMSO were diluted into master plates at 200 µM concentration in DMEM. The 200 µM master plates were further diluted by transferring an aliquot of 5 µl into a 96-well sterile white-bottom plate (Costar) containing 45 µl of culture medium at 4°C. Splenocytes (100,000 in 50 µl of culture medium) that had been obtained from infected hamsters as described above were added to the assay plate for a final drug concentration of 10 µM. The positive control (splenocytes treated with 0.2 µM Amphotericin B) and negative controls (0.1% DMSO vehicle) were distributed in the two outer columns (8 wells each) of each plate in alternating fashion to minimize any edge effect. After 48 hours of culture at 37°C in a humidified atmosphere and 5% CO2, the plates were centrifuged at 500 g for 7 min, the supernatant discarded using a multi- channel vacuum aspirator (Costar), and 20 µl of 1X cell culture lysis reagent (Promega) was added to the cells. To complete the lysis procedure the plates were frozen at −70°C and then thawed, and the luciferase activity determined in a plate luminometer following addition of 100 µl of the luciferin substrate at room temperature (Promega). The Z score was calculated for each compound as the mean counts of the compound tested minus the mean counts of all compounds in the plate divided by the SD all compounds in the plate. The mean Z score for each drug was calculated based on duplicate screenings performed in two different experiments. A Z score of ≤–1.96, which corresponds to a p value of ≤0.05 (95% confidence limit), was used as the threshold to identify the hits. […] The quality of each assay was determined by calculating the Z prime (Z') factor [31], which measures the discrimination between positive and negative controls in the screen. The Z' factor was calculated as 1 – [(3SD positive controls +3SD negative controls)/absolute value of (mean of the positive controls – mean of the negative controls)].

The nature of series [4]: Cell toxicity (CC50) in the HepG2 cell line, CellTiter-Glo. It is filed as cell-based, human. As to conditions: human. The protocol:
(§1) After 24 hours of culture at 37°C the number of viable cells was determined by quantification of the ATP present in the cell using the CellTiter-Glo luminescent Cell Viability Assay (Promega).

The test system of the next series is HepG2 cells. The description is as above. In kind it is cell-based, human. As to the method:
as §1

Where [5] appears, read: Leishmania donovani, 48 h, 48 h of culture, luminometry, purchased compounds dissolved in DMSO, read-out: Ex vivo model EC50 (mean±SE).
Setting [6] is: Leishmania donovani, Peritoneal macrophage, hamster peritoneal macrophages infected in vitro, luminometry, purchased compounds.
Where [7] appears, read: Leishmania donovani, ex vivo splenic explant, 48 h, luminometry, at least two experiments, compound from screened library, read-out: Ex vivo model EC50 Mean.
The mark [8] stands for this setting: ex vivo splenic explant, 48 h, luminometry, at least two experiments, compound from screened library, read-out: Ex vivo model EC50 Mean.
Setting [9] is: HepG2 cell line, 24 h, ATP luminescence, compound from screened library, read-out: HepG2 CC50 Mean.

Turning to `CCCCCCCCCCCCCCCCOP(=O)([O-])OCC[N+](C)(C)C` [Miltefosine], the EC50 (as a rule, the concentration that produces a half-maximal response) was determined as 1.02 ± 0.08 µM in series [1] (setting [5]); 1 µM in series [1] (Leishmania donovani, ex vivo model, freshly solubilized compound from commercial source, read-out: EC50); 2.28 ± 0.21 µM in series [2] (setting [6]). The “Anti-leishmanial activity, repeated testing” value in series [1] (compound from the NCI chemical library) is “inactive”. The “Outcome of library screening (significant Z score / hit)” value (“Outcome … (significant Z score / hit)” for short) in series [3] was “did not show a significant Z score”.
For the compound Meglumine antimoniate, the concentration for a half-maximal effect (EC50) in series [1] (48 h of culture, luminometry, purchased compounds dissolved in DMSO, read-out: Ex vivo model EC50 (mean±SE)) is 270 ± 57.5 µM; in series [2] (hamster peritoneal macrophages infected in vitro, luminometry, purchased compounds), 146 ± 42 µM.
For the compound `OC(Cn1cncn1)(Cn1cncn1)c1ccc(F)cc1F` [Fluconazole], the EC50 in series [1] (setting [5]) and in series [2] (setting [6]) was greater than 250 µM throughout. For the same compound, the “Activity in the ex vivo system (screen or EC50 determination)” value in series [1] (transgenic L. donovani, ex vivo system) is reported as “no activity”. For the same compound, the “Outcome … (significant Z score / hit)” value in series [3] was “did not show a significant Z score”.
For the compound `CNCCC=C1c2ccccc2CCc2ccccc21` [Nortriptyline], the figures for the EC50 in series [1] (setting [5]) and in series [2] (setting [6]) were 6.03 ± 0.28 µM and 2.65 ± 0.35 µM, respectively.
The like results for `CC[C@@]1([C@@H]2O[C@@H]([C@H]3O[C@@](O)(CO)[C@H](C)C[C@@H]3C)C[C@@H]2C)CC[C@H]([C@]2(C)CC[C@]3(C[C@H](O)[C@@H](C)[C@@H]([C@@H](C)[C@@H](OC)[C@H](C)C(=O)O)O3)O2)O1` [Monensin A] were, in that order, 0.85 ± 0.68 µM and 0.23 ± 0.15 µM.
On to `N=C(N)c1ccc(OCCCCCOc2ccc(C(=N)N)cc2)cc1` [Pentamidine], for which the half-maximal effective concentration (EC50) in series [1] (setting [5]) amounted to 3.02 ± 0.34 µM; in series [1] (Leishmania donovani, Splenocyte, ex vivo splenocytes system, read-out: EC50) it was 3 µM; in series [2] (setting [6]) it was 0.89 ± 0.37 µM. Besides, in series [3] (48 h, duplicate screen, hit threshold -1.96), the Z score is −1.87. For the same compound, the “Outcome … (significant Z score / hit)” value in series [3] is given as “did not show a significant Z score”.
Take `CCN(CC)C(=S)SSC(=S)N(CC)CC` [Disulfiram]: the values for the EC50 in series [1] (setting [5]), in series [1] (setting [7]) and in series [2] (setting [6]) were 0.31 ± 0.03 µM, 8.1 µM and 0.16 ± 0.03 µM, respectively. For the same compound, the CC50 – broadly, the concentration giving 50% cytotoxicity – at 24 h in series [4] came out at 53 µM.
As for `CC[C@@H](C(=O)[C@@H](C)[C@@H](O)[C@H](C)CCc1ccc(C)c(O)c1C(=O)O)[C@H]1O[C@](CC)([C@H]2CC[C@](O)(CC)[C@H](C)O2)C[C@@H]1C` [Lasalocid Sodium], the half-maximal effective concentration (EC50) in series [1] (setting [8]) is 8.9 µM. Besides, the CC50 in the series with HepG2 cells (setting [9]) worked out at 45.8 µM.
In the case of `CCCCCC[C@H]1C(=O)O[C@H](C)[C@H](NC(=O)c2cccc(NC=O)c2O)C(=O)O[C@@H](C)[C@@H]1OC(=O)CC(C)C` [ANTIMYCIN A], the EC50 in series [1] (Leishmania donovani, 50% reduction in parasite counts in the ex vivo model, read-out: EC50 Mean (Table S2)) turned out to be 11.6 µM; in series [1] (Leishmania donovani, 48 h of culture, luminometry, purchased compounds dissolved in DMSO, read-out: Ex vivo model EC50 (mean±SE)) it was 1.27 ± 1.07 µM; in series [1] (setting [7]) it was 11.6 µM; in series [2] (Leishmania donovani, Peritoneal macrophage, in Mesocricetus auratus), 1.67 ± 1.05 µM. In addition, the CC50 at 24 h in series [4] (setting [9]) came out at 58.4 µM.
Regarding `CC(C)c1ccc2c(c1)CC[C@H]1[C@](C)(CN)CCC[C@]21C` [Dehydroabietylamine], in series [1] (setting [8]), the EC50 worked out at 5.8 µM. Besides, it took 32.9 µM to reach half-maximal cytotoxicity with HepG2 cells (CC50).
Take `CCCCCCc1ccc(O)cc1O.Nc1c2ccccc2nc2ccccc12` [Acrisorcin]: in series [1] (setting [8]), the EC50 was determined as 8 µM. In the series on HepG2 cells (setting [9]), the CC50 was found to be 50.9 µM.
For the compound `O=[As](O)(O)c1ccc(Cc2ccc([As](=O)(O)O)cc2)cc1` [4-[(4-arsonophenyl)methyl]phenyl]arsonic acid], the EC50 in series [1] (setting [8]) worked out at 6.9 µM. In addition, in the series with HepG2 cells (setting [9]), the CC50 came out at 34.5 µM.
As to `OC(c1cc(-c2ccc(Cl)cc2)nc2ccccc12)C1CCCCN1` (stereo not drawn) [2-(4-chlorophenyl)quinolin-4-yl]-(2-piperidyl)methanol], the half-maximal effective concentration (EC50) in series [1] (setting [8]) stood at 6.7 µM. In the series on HepG2 cells (setting [9]), the CC50 was found to be 38.4 µM.
